Results published in article PMC3832616, “Crystal Structure of the Pleckstrin Homology Domain from the Ceramide Transfer Protein: Implications for Conformational Change upon Ligand Binding” (PLoS ONE, 2013).

Biological target: T1, Ceramide transfer protein (CERT) (Homo sapiens, UniProt Q9Y5P4)
T1 construct: gene CERT1; PH domain, residues 20–122 (three extra amino acids G-E-F before residue 20)
T1 sequence (Q9Y5P4 20-122): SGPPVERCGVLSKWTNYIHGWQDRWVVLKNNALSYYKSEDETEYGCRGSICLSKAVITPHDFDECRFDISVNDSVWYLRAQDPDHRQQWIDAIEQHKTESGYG
Experiment: […]-1H HSQC NMR chemical shift titration, global fit
Assay type: binding

Kd: 470 ± 14 µM
Structure (SMILES): CCCCCC(=O)OC[C@H](COP(=O)(O)O[C@H]1[C@H](O)[C@@H](O)[C@H](OP(=O)(O)O)[C@@H](O)[C@H]1O)OC(=O)CCCCC [diC6-PtdIns(4)P]
